Key:
Type in all cases: cell-based
HepG2 = test: IC50 determination / cytotoxicity in human cell lines (HepG2); conditions: HepG2 (liver; hepatoblastoma), 96 h; for % max. toxicity @ 50 μM3: 50 μM; for IC50: 10.000 cells per well, read-out: IC50 [μM] relative to untreated cells
Protocol: (§1) Anticancer activity of the dinucleotides, (formulated and administered in PBS solutions), was evaluated in vitro in various cancer cell lines, according to a commonly used procedures for assessment of compounds cytotoxicity, as out lined in the following publications: Mender, I., Gryaznov, S., Dikmen, Z. G., Wright, W. E., & Shay, J. W. (2015). Induction of telomere dysfunction mediated by the telomerase substrate precursor 6-thio-2′-deoxyguanosine. Cancer Discovery, 5, 82-95; Mender et al., (2020). Telomere Stress Potentiates STING-Dependent Anti-tumor Immunity. Cancer Cell, 38, 400-411.

HEK293 = test: IC50 determination / cytotoxicity in human cell lines (HEK293); conditions: HEK293 (Kidney), 96 h; for IC50: 10.000 cells per well, 96 well plates, read-out: IC50 [μM] relative to untreated cells
Protocol: as §1

Hep3B = test: IC50 determination / cytotoxicity in human cell lines (Hep3B); conditions: Hep3B (liver; childhood HCC), 96 h; for % max. toxicity @ 50 μM2: 50 μM; for IC50: 10.000 cells per well, read-out: IC50 [μM] relative to untreated cells
Protocol: as §1

NCI-H23 = test: IC50 determination / cytotoxicity in human cell lines (NCI-H23); conditions: NCI-H23 (lung; adenocarcinoma), 96 h; for % max. toxicity @ 50 μM4: 50 μM; for IC50: 10.000 cells per well, read-out: IC50 [μM] relative to untreated cells
Protocol: as §1

Panc-1 = test: IC50 determination / cytotoxicity in human cell lines (Panc-1); conditions: 96 h; for % max. toxicity @ 50 μM5: 50 μM; for IC50: 10.000 cells per well, read-out: IC50 [μM] relative to untreated cells
Protocol: as §1

Q: With `Nc1nc2c(ncn2[C@H]2C[C@@H](O)[C@@H](COP(=O)(O)O[C@@H]3C[C@H](n4cnc5c(=S)[nH]c(N)nc54)O[C@@H]3CO)O2)c(=S)[nH]1` [Compound 1] as the compound, how does the “% max. toxicity @ 50 μM3” value (HepG2) read?
A: Its value is 94%.

Q: And the IC50 (HepG2)?
A: Its IC50 is 0.15 µM.

Q: What about the “% max. toxicity @ 50 μM” value (HEK293) of the same compound?
A: The value was 94%.

Q: What about the IC50 (HEK293) of the same compound?
A: Its IC50 is 0.28 µM.

Q: What about the “% max. toxicity @ 50 μM2” value (Hep3B) of the same compound?
A: Its value is 92%.

Q: And the IC50 (Hep3B)?
A: The IC50 was 0.68 µM.

Q: What about the “% max. toxicity @ 50 μM4” value (NCI-H23) of the same compound?
A: Its value is 93%.

Q: And the IC50 (NCI-H23)?
A: Its IC50 is 0.07 µM.

Q: What about the “% max. toxicity @ 50 μM5” value (Panc-1) of the same compound?
A: The value was 95%.

Q: What about the IC50 (Panc-1) of the same compound?
A: Its IC50 is 0.18 µM.

Q: `Nc1nc2c(ncn2[C@H]2C[C@@H](OP(O)(=S)OC[C@H]3O[C@@H](n4cc(F)c(=O)[nH]c4=O)C[C@H]3O)[C@@H](CO)O2)c(=S)[nH]1` (some centres unmarked) [Compound 11] was tested. Which “% max. toxicity @ 50 μM3” value (HepG2) did it give?
A: Its value is 71%.

Q: What about the IC50 (HepG2) of the same compound?
A: Its IC50 is 0.61 µM.

Q: And the “% max. toxicity @ 50 μM” value (HEK293)?
A: The value was 86%.

Q: What about the IC50 (HEK293) of the same compound?
A: Its IC50 is 0.63 µM.

Q: And the “% max. toxicity @ 50 μM2” value (Hep3B)?
A: The value was 62%.

Q: And the IC50 (Hep3B)?
A: Its IC50 is 1.12 µM.

Q: And the “% max. toxicity @ 50 μM4” value (NCI-H23)?
A: The value was 79%.

Q: And the IC50 (NCI-H23)?
A: The IC50 was 1.11 µM.

Q: And the “% max. toxicity @ 50 μM5” value (Panc-1)?
A: Its value is 80%.

Q: And the IC50 (Panc-1)?
A: The IC50 was 5.12 µM.

Q: With `Nc1nc2c(ncn2[C@H]2C[C@@H](OP(=O)(O)OC[C@H]3O[C@@H](n4cc(F)c(=O)[nH]c4=O)C[C@H]3O)[C@@H](CO)O2)c(=S)[nH]1` [Compound 5] as the compound, how does the “% max. toxicity @ 50 μM3” value (HepG2) read?
A: Its value is 92%.

Q: And the IC50 (HepG2)?
A: The IC50 was 0.04 µM.

Q: What about the “% max. toxicity @ 50 μM” value (HEK293) of the same compound?
A: The value was 94%.

Q: And the IC50 (HEK293)?
A: The IC50 was 0.02 µM.

Q: And the “% max. toxicity @ 50 μM2” value (Hep3B)?
A: The value was 87%.

Q: What about the IC50 (Hep3B) of the same compound?
A: Its IC50 is 0.09 µM.

Q: What about the “% max. toxicity @ 50 μM4” value (NCI-H23) of the same compound?
A: The value was 94%.

Q: And the IC50 (NCI-H23)?
A: The IC50 was 0.01 µM.

Q: And the “% max. toxicity @ 50 μM5” value (Panc-1)?
A: Its value is 96%.

Q: What about the IC50 (Panc-1) of the same compound?
A: The IC50 was 0.25 µM.

Q: How did the “% max. toxicity @ 50 μM3” value (HepG2) turn out when `Nc1nc2c(ncn2[C@H]2C[C@@H](O)[C@@H](COP(=O)(O)O[C@@H]3C[C@H](n4cc(F)c(=O)[nH]c4=O)O[C@@H]3CO)O2)c(=S)[nH]1` [Compound 6] was run?
A: Its value is 89%.

Q: What about the IC50 (HepG2) of the same compound?
A: The IC50 was 0.06 µM.

Q: And the “% max. toxicity @ 50 μM” value (HEK293)?
A: Its value is 93%.

Q: And the IC50 (HEK293)?
A: Its IC50 is 0.01 µM.

Q: What about the “% max. toxicity @ 50 μM2” value (Hep3B) of the same compound?
A: Its value is 82%.

Q: And the IC50 (Hep3B)?
A: Its IC50 is 0.06 µM.

Q: And the “% max. toxicity @ 50 μM4” value (NCI-H23)?
A: The value was 92%.

Q: And the IC50 (NCI-H23)?
A: The IC50 was 0.02 µM.

Q: And the “% max. toxicity @ 50 μM5” value (Panc-1)?
A: The value was 88%.

Q: What about the IC50 (Panc-1) of the same compound?
A: Its IC50 is 0.25 µM.

Q: What does the source list for `Nc1nc2c(ncn2[C@H]2C[C@@H](O)[C@@H](COP(O)(=S)O[C@@H]3C[C@H](n4cc(F)c(=O)[nH]c4=O)O[C@@H]3CO)O2)c(=S)[nH]1` (some centres unmarked) [Compound-12]?
A: % max. toxicity @ 50 μM3 (HepG2): 49%; IC50 (HepG2): 1.15 µM; % max. toxicity @ 50 μM (HEK293): 86%; IC50 (HEK293): 0.61 µM; % max. toxicity @ 50 μM2 (Hep3B): 59%; IC50 (Hep3B): 3.68 µM; % max. toxicity @ 50 μM4 (NCI-H23): 81%; IC50 (NCI-H23): 2.55 µM; % max. toxicity @ 50 μM5 (Panc-1): 48%; IC50 (Panc-1): > 50 µM
